Read-outs that look alike come from different tables or passages of the source.
Legend:
[1] = tested on: athymic mice bearing human prostate C4-2 cancer xenografts; assay type: in vivo; settings: for 224Ra %ID/g: 224Ra measured 2 h after i.v. injection of the named 224Ra-solution; for %ID/g of 212Pb without 212Pb ingrowth from 224Ra: 2 h after i.v. injection of the 224Ra-solution
[2] = in man; cited from earlier work
[3] = in mice; cited from earlier work

For `NC(=O)CN1CCN(CC(N)=O)CCN(CC(N)=O)C(Cc2ccc(NC(=S)NCC3CCC(C(=O)NC(Cc4ccc5ccccc5c4)C(=O)NCCCCC(NC(=O)NC(CCC(=O)O)C(=O)O)C(=O)O)CC3)cc2)CN(CC(N)=O)CC1` (centres unmarked) [NG001, p-SCN-Bn-TCMC-PSMA ligand], the “lower kidney uptake compared with [212Pb]Pb-PSMA-617” value ([1]; 2 h after injection) was 3.5 fold.

In the case of `[Cl][212Pb][Cl]` [[212Pb]PbCl2], the tumour-to-kidney ratio ([1]; 2 h after i.v. injection of the 224Ra-solutions) is reported as 0.04, the “224Ra %ID/g” value ([1]; Femur) is reported as 19.40±1.97 %ID/g and the “%ID/g of 212Pb without 212Pb ingrowth from 224Ra” value ([1]; Kidneys) is reported as 48.47±7.57 %ID/g. The “224Ra %ID/g” value ([1]; Skull) was 19.62±1.28 %ID/g and the “%ID/g of 212Pb without 212Pb ingrowth from 224Ra” value ([1]; Tumour (C4-2 xenograft)) was 1.71±1.29 %ID/g.

For `[Ra]` [radium], the “radium excreted by intestinal clearance” value [2] is listed as “more than 90%” and the “renal clearance of radium” value [3] is listed as “about 70%”.

— article PMC7527546 (Current Radiopharmaceuticals, 2020)
